In patent US20080234132A1, “Microcin B17 Analogs And Methods For Their Preparation And Use” (priority 2004, published 2008):

Tests used:
E. coli [1] = assay: In vivo E. coli (Table 5-C summary of haloassays); type: cell-based; details: number = not active up to this concentration
Description: Lawns of cells were prepared by spreading, on top of a LB+Agar plate, 3 ml of melted LSS medium (half-agar strength: 0.3 g Agar/50 ml LB) inoculated with 100 μl of a 10 ml LB overnight culture of E. coli cells grown at 37° C. […] The plates were incubated at 37° C. overnight and growth inhibition was qualitatively analysed by measuring the diameter of each halo.

HT-29 cells [2] = assay: cells; type: cell-based, human; details: Homo sapiens, HT-29; MTT, 24 hours; read-out: In vivo HT29 Cells (approximate IC50)
Description: (§1) Human cell cultures were initiated from frozen cell stocks (the gift of Dr J. Gavrilovic, UEA). The HT-29 line is derived from a colorectal adenocarcinoma while HeLa cells are derived from a cervical epithelial adenocarcinoma (see FIG. 35). Both human cell lines form adherent cultures and were maintained at 37° C. in T25 culture vessels as 10 mL cultures in CO2 Independent Media containing 10% foetal bovine serum (EU approved), 4 mM L-glutamine, penicillin/streptomycin (Invitrogen). A subcultivation ratio of 1:3 and 1:6 were maintained for HT-29 and HeLa lines respectively. Media was renewed every three days.
(§2) The assay to determine the effects of the heterocyclic compounds on mammalian cells is based on the cleavage of the yellow tetrazolium salt MTT to purple formazoan crystals by metabolically active cells (Roche). After incubation with MTT and solubilization, the resulting coloured solution is quantified using a scanning spectrophotometer. Each of the cell lines was trypsinised and resuspended in fresh media prior to transfer to sterile flat-bottomed microtitre plates (200 μL per well) and allowed to recover for 16 hours. Five thousand HT-29 or 7500 HeLa cells per 100 μL culture medium were incubated in the presence of the drugs in various concentrations (totalling 10 μL) for 24 hours. Cell viability was then determined by addition of MTT reagent (20 μL) in each well, as per manufacturer's instructions and incubated for a further 4 hours. Solubilization solution (100 μL) was added per well and the plates incubated overnight at 37° C. The plates were read in a spectrophotometer (scanning from 500-650 nm, signal peak at 570 nm). A representative result is illustrated in FIG. 36.

HeLa cells = assay: cells; type: cell-based, human; details: Homo sapiens, HeLa; MTT, 24 hours; read-out: In vivo HeLa Cells (approximate IC50)
Description: as §1, §2

HT-29 cells [3] = assay: MTT cell viability assay, HT-29; type: cell-based, human; details: cell reads on: Active
Description: Human cell cultures were initiated from frozen cell stocks (the gift of Dr J. Gavrilovic, UEA). […] Both human cell lines form adherent cultures and were maintained at 37° C. in T25 culture vessels as 10 mL cultures in CO2 Independent Media containing 10% foetal bovine serum (EU approved), 4 mM L-glutamine, penicillin/streptomycin (Invitrogen). […] Media was renewed every three days.
After incubation with MTT and solubilization, the resulting coloured solution is quantified using a scanning spectrophotometer. […] Cell viability was then determined by addition of MTT reagent (20 μL) in each well, as per manufacturer's instructions and incubated for a further 4 hours. Solubilization solution (100 μL) was added per well and the plates incubated overnight at 37° C. The plates were read in a spectrophotometer (scanning from 500-650 nm, signal peak at 570 nm).

E. coli [4] = assay: In vivo E. coli activity (Table 5-C); type: cell-based; details: cell reads on: Active
Description: In vivo activity was tested using the bioassay developed by Sinha Roy, 1999, with some modifications. The Microcin-sensitive E. coli DH5α was used as the indicator strain. Lawns of cells were prepared by spreading 100 μL of a 10 mL LB culture grown at 37° C. overnight mixed with 3 mL of LSS, on LB+agar (10 g/L) plates. […] The plates were incubated at 37° C. overnight and halos of growth inhibition were qualitatively analyzed by determining their diameters (see FIG. 9).
Lawns of cells were prepared by spreading, on top of a LB+Agar plate, 3 ml of melted LSS medium (half-agar strength: 0.3 g Agar/50 ml LB) inoculated with 100 μl of a 10 ml LB overnight culture of E. coli cells grown at 37° C. Halo assays with MccB17 generally used a DH5α strain (Novagen) but the inventors used the standard E. coli strain (K12) because it is from this strain that the microcin B17-resistant mutant W751R was obtained. […] The plates were incubated at 37° C. overnight and growth inhibition was qualitatively analysed by measuring the diameter of each halo.
Haloassays were performed as described above.

E. coli Topoisomerase IV = E. coli Topoisomerase IV (Escherichia coli, UniProt P0AFI2+P20083); assay: biochemical; type: biochemical; parameters: purchased John Innes Enterprises (Norwich, UK)
Sequence of E. coli Topoisomerase IV (P20083 whole entry): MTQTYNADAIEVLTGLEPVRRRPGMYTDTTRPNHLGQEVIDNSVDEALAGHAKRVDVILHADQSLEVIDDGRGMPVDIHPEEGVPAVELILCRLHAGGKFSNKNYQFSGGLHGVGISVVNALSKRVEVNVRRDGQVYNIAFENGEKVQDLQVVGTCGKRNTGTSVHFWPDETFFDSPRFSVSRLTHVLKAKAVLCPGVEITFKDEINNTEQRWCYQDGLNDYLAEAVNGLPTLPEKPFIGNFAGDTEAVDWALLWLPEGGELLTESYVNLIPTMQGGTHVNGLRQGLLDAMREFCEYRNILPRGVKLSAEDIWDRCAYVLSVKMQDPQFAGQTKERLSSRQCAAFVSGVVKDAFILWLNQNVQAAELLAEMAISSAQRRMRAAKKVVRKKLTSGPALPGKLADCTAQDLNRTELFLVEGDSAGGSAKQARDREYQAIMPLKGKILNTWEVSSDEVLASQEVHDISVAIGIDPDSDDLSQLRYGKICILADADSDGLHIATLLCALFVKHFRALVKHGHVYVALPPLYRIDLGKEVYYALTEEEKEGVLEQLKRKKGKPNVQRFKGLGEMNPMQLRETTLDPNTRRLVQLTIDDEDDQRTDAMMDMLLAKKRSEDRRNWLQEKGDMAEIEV
Sequence of E. coli Topoisomerase IV (P0AFI2 whole entry): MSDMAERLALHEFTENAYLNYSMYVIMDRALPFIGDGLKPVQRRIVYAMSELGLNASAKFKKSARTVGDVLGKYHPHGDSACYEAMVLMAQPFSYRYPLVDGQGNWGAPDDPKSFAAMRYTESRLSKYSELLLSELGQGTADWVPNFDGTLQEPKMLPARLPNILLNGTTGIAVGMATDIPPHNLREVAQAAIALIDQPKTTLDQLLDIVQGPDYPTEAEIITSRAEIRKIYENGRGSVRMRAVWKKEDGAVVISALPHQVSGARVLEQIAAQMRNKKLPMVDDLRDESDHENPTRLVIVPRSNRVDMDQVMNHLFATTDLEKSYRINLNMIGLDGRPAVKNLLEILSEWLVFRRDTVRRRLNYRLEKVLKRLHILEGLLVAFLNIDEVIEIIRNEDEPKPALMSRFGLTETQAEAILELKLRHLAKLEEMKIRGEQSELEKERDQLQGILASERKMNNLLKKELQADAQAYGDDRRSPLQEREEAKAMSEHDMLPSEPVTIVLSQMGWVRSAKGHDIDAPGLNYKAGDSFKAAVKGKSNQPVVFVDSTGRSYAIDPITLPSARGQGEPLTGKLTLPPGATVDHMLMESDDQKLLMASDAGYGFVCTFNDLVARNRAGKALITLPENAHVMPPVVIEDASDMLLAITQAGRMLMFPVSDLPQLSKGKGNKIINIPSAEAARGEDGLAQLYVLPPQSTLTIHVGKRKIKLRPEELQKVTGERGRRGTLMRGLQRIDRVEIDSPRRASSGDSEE
Description: Topoisomerase IV-mediated relaxation assays and decatenation assays were performed as previously described (see Peng and Marians, 1993). […] Decatenation assays contained topoisomerase IV (4 nM), 40 mM Tris HCl pH 7.5 at 30° C., 6 mM MgCl2, 10 mM DTT, 1 mM spermidine.HCl, 100 mM potassium glutamate, 0.5 mM ATP, 0.5 mg/mL BSA, 200 ng of kinetoplast DNA, and inhibitor where appropriate.
All in vitro reactions were incubated at 37° C. for 30 minutes. The DMSO concentration in each reaction was kept constant at 3.33%. Reactions were quenched with the addition of an equal volume of phenol/chloroform/isoamyl alcohol (25:24:1) and one tenth volume of loading buffer containing 40% sucrose, 100 mM Tris.HCl pH 7.5, 100 mM EDTA, 2 mg/mL bromophenol blue. The proteins were precipitated by vortexing, followed by centrifugation for 5 minutes at 16 000 g. The aqueous phase was loaded onto 1% agarose gels in Tris-acetate and were electrophoresed at 60 V for three hours in Tris-acetate buffer. The gels were stained in 1 μg/mL ethidium bromide. The gels were visualised using UV light and were documented and analysed using Syngene software.

CC(C)(C)OC(=O)NCc1nc(C(=O)O)co1 [#6]
In vivo E. coli (E. coli [1]): (→400 μM)
IC50 (HT-29 cells [2]): > 75 µM
IC50 (HeLa cells): > 75 µM
In vivo HT29 Cells activity (HT-29 cells [3]): Not
In vivo E. coli activity, up to 400 μM (E. coli [4]): Not
Topo IV, D (decatenation reaction) IC50 (E. coli Topoisomerase IV): weakly
IC50 (E. coli Topoisomerase IV; read-out: Topo IV, D (decatenation reaction) IC50): 200 µM
